According to ChEMBL document CHEMBL3244159, “Ultraviolet photoelectron spectroscopy of cyclic amidines. 1. Electronic structure of some alpha-adrenergic benzylimidazolines” (J Med Chem, 1979):

Key:
[1] = molecular target: Adrenergic receptor alpha; assay: Displacement of [3H]clonidine from alpha-adrenergic receptor in rat brain; type: tissue-based
Oryctolagus cuniculus = species on record: Oryctolagus cuniculus; assay: Binding affinity to alpha-adrenergic receptor in rabbit jejunum; type: tissue-based

Compound | Ki [1] | pD2 (Oryctolagus cuniculus)
c1ccc2c(c1)CCCC2C1=NCCN1 (stereo not given) [TETRAHYDROZOLINE] | 11 nM | 6.5
Cc1cc(C(C)(C)C)c(O)c(C)c1CC1=NCCN1 |  | 9.8
Cc1cc(C(C)(C)C)cc(C)c1CC1=NCCN1 |  | 7.1
c1ccc2c(CC3=NCCN3)cccc2c1 |  | 7.1
